# From PubChem BioAssay (NCI)
#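 GI50 is the concentration that inhibits growth by half. TGI marks complete inhibition of growth.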
# Assays:
# Assay in all cases: NCI-60 cell line screen, 384-well format
# [1] = tested on: PC-3 prostate
# [2] = tested on: CCRF-CEM leukemia
# [3] = tested on: OVCAR-5 ovarian
# [4] = tested on: HT29 colon
# [5] = tested on: A498 renal
# [6] = tested on: NCI-H322M lung
# [7] = tested on: EKVX NSCLC
# [8] = tested on: SF-268 CNS
# [9] = tested on: SW-620 colon
# [10] = tested on: HOP-92 NSCLC
# [11] = tested on: UACC-62 melanoma
# [12] = tested on: RXF 393 renal
# [13] = tested on: BT-549 breast
# [14] = tested on: NCI-H522 lung
# [15] = tested on: U251 glioblastoma
# [16] = tested on: SF-539 CNS
# [17] = tested on: CAKI-1 renal
# [18] = tested on: LOX IMVI melanoma
# [19] = tested on: HCC-2998 colon
# [20] = tested on: MCF7 breast
# [21] = tested on: SNB-19 CNS
# [22] = tested on: SR leukemia
# [23] = tested on: HOP-62 NSCLC
# [24] = tested on: RPMI-8226 leukemia
# [25] = tested on: COLO 205 colon
# [26] = tested on: 786-0 renal
# [27] = tested on: SK-MEL-5 melanoma
# [28] = tested on: SK-MEL-2 melanoma
# [29] = tested on: MDA-MB-468 breast
# [30] = tested on: NCI/ADR-RES ovarian
# [31] = tested on: MDA-MB-435 melanoma
# [32] = tested on: SK-MEL-28 melanoma
# [33] = tested on: SK-OV-3 ovarian
# [34] = tested on: DU-145 prostate
# [35] = tested on: MOLT-4 leukemia
# [36] = tested on: SF-295 CNS
# [37] = tested on: TK-10 renal
# [38] = tested on: SNB-75 CNS
# [39] = tested on: NCI-H23 lung
# [40] = tested on: NCI-H226 lung
# [41] = tested on: HCT-15 colon
# [42] = tested on: HL-60(TB) leukemia
# [43] = tested on: UACC-257 melanoma
# [44] = tested on: T-47D breast
# [45] = tested on: MALME-3M melanoma
# [46] = tested on: OVCAR-4 ovarian
# [47] = tested on: SN12C renal
# [48] = tested on: KM12 colon
# [49] = tested on: NCI-H460 NSCLC
# [50] = tested on: A549 NSCLC
# [51] = tested on: OVCAR-3 ovarian
# [52] = tested on: MDA-MB-231 breast
# [53] = tested on: K-562 leukemia
# [54] = tested on: HS 578T breast
# [55] = tested on: HCT-116 colon
# [56] = tested on: IGROV1 ovarian
# [57] = tested on: M14 melanoma
# [58] = tested on: ACHN renal
# [59] = tested on: UO-31 renal
smiles,measurement,setting,value
O=[N+]([O-])c1ccc(Nc2ccccc2-c2ccccc2)c2nonc12,GI50,[1],12.8 µM
same,TGI,[1],27 µM
same,GI50,[2],11.3 µM
same,TGI,[2],23.6 µM
same,GI50,[3],15.8 µM
same,TGI,[3],36.9 µM
same,GI50,[4],15.9 µM
same,TGI,[4],33.8 µM
same,GI50,[5],14.9 µM
same,TGI,[5],32.3 µM
same,GI50,[6],17.5 µM
same,TGI,[6],37.3 µM
same,GI50,[7],13.2 µM
same,TGI,[7],30 µM
same,GI50,[8],15.6 µM
same,TGI,[8],34.1 µM
same,GI50,[9],16.4 µM
same,TGI,[9],35.7 µM
same,GI50,[10],10.5 µM
same,TGI,[10],24.8 µM
same,GI50,[11],13.6 µM
same,TGI,[11],28.3 µM
same,GI50,[12],17.4 µM
same,TGI,[12],32.2 µM
same,GI50,[13],17.1 µM
same,TGI,[13],32.2 µM
same,GI50,[14],9.27 µM
same,TGI,[14],22.9 µM
same,GI50,[15],11.2 µM
same,TGI,[15],25.7 µM
same,GI50,[16],17.4 µM
same,TGI,[16],33.2 µM
same,GI50,[17],14.5 µM
same,TGI,[17],33.3 µM
same,GI50,[18],15.9 µM
same,TGI,[18],29.7 µM
same,GI50,[19],22.3 µM
same,TGI,[19],40.8 µM
same,GI50,[20],13.8 µM
same,TGI,[20],31.3 µM
same,GI50,[21],12.9 µM
same,TGI,[21],35.1 µM
same,GI50,[22],19 µM
same,TGI,[22],33.3 µM
same,GI50,[23],13.7 µM
same,TGI,[23],28.4 µM
same,GI50,[24],7.48 µM
same,TGI,[24],20 µM
same,GI50,[25],17.5 µM
same,TGI,[25],42.3 µM
same,GI50,[26],12.6 µM
same,TGI,[26],25.6 µM
same,GI50,[27],12.9 µM
same,TGI,[27],25.7 µM
same,GI50,[28],23 µM
same,TGI,[28],37.9 µM
same,GI50,[29],3.96 µM
same,TGI,[29],15.4 µM
same,GI50,[30],12.7 µM
same,TGI,[30],27.9 µM
same,GI50,[31],10.7 µM
same,TGI,[31],30.1 µM
same,GI50,[32],13.2 µM
same,TGI,[32],29.7 µM
same,GI50,[33],19.9 µM
same,TGI,[33],40.4 µM
same,GI50,[34],16.3 µM
same,TGI,[34],51.2 µM
same,GI50,[35],12.8 µM
same,TGI,[35],25.6 µM
same,GI50,[36],10.1 µM
same,TGI,[36],22.9 µM
same,GI50,[37],14 µM
same,TGI,[37],34.8 µM
same,GI50,[38],14.1 µM
same,TGI,[38],34 µM
same,GI50,[39],5.93 µM
same,TGI,[39],20.5 µM
same,GI50,[40],11.2 µM
same,TGI,[40],23.6 µM
same,GI50,[41],14.3 µM
same,TGI,[41],29.2 µM
same,GI50,[42],13.3 µM
same,TGI,[42],26.5 µM
same,GI50,[43],16.5 µM
same,TGI,[43],36.1 µM
same,GI50,[44],7.99 µM
same,TGI,[44],30.9 µM
same,GI50,[45],16.8 µM
same,TGI,[45],36.3 µM
same,GI50,[46],7.68 µM
same,TGI,[46],28.4 µM
same,GI50,[47],11.9 µM
same,TGI,[47],28.6 µM
same,GI50,[48],16.4 µM
same,TGI,[48],33 µM
same,GI50,[49],11 µM
same,TGI,[49],24.1 µM
same,GI50,[50],14.1 µM
same,TGI,[50],30.9 µM
same,GI50,[51],11.9 µM
same,TGI,[51],25.1 µM
same,GI50,[52],16.2 µM
same,TGI,[52],35.1 µM
same,GI50,[53],11.5 µM
same,TGI,[53],28.6 µM
same,GI50,[54],10.4 µM
same,TGI,[54],23.8 µM
same,GI50,[55],13.9 µM
same,TGI,[55],28.2 µM
same,GI50,[56],16.1 µM
same,TGI,[56],36.2 µM
same,GI50,[57],13.9 µM
same,TGI,[57],30.9 µM
same,GI50,[58],15.6 µM
same,TGI,[58],34.2 µM
same,GI50,[59],13 µM
same,TGI,[59],27.5 µM
